Reference: patent publication US20060052627A1, “Novel modulators of the PPAR-type receptors and cosmetic/pharmaceutical compositions comprised thereof” (GALDERMA RESEARCH & DEVELOPMENT, S.N.C., priority 2003, published 2006)

What was measured:
Assay type in all cases: cell-based
PPARγ = molecular target: T1, PPARγ (Homo sapiens, UniProt P37231); assay: Cross-curve PPAR transactivation test (luciferase reporter, HeLN cells), PPARγ; details: HeLN cells stably transfected with Gal-hPPARγ; apparent Kd by Schild regression against reference agonist; n.a. means not active; read-out: PPAR gamma Kd app
T1 sequence (P37231 238-505 limits assumed): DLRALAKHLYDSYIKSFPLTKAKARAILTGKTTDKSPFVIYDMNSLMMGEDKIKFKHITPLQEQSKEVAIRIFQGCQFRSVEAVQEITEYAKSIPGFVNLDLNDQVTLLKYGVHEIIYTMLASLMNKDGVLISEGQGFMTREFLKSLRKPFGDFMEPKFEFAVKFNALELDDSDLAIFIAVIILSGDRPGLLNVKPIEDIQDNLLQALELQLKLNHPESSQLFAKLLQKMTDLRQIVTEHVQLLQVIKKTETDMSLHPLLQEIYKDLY
Experimental: (§1) This activity on the PPARα, δ and γ receptors is measured in a transactivation test and quantified by the dissociation constant Kdapp (apparent), as described in Example 142.
(§2) The activation of receptors with an agonist (activator) in HeLN cells leads to the expression of a reporter gene, luciferase, which, in the presence of a substrate, generates light. The modulation of the receptors is measured as quantity of luminescence produced after incubating the cells in the presence of a reference agonist. The ligands will displace the agonist from its site. The measurement of the activity is performed by quantification of the light produced. This measurement makes it possible to determine the modulatory activity of the compounds according to the invention by determining the constant which is the affinity of the molecule for the receptor. […]
(§3) The various dilutions of the test products and of the reference ligand are added in an amount of 5 [I per well. […] After 5 minutes, the plates are read by the luminescence reader.
(§4) These AC50 values are used to calculate the Schild regression by plotting a straight line corresponding to the Schild equation (“quantitation in receptor pharmacology” Terry P. Kenakin, Receptors and Channels, 2001, 7, 371-385) which leads to Kd app values being obtained (in nM).

PPARδ = PPARδ (Homo sapiens, UniProt Q03181); assay: Cross-curve PPAR transactivation test (luciferase reporter, HeLN cells), PPARδ; details: HeLN cells stably transfected with Gal-hPPARδ; apparent Kd by Schild regression against reference agonist; n.a. means not active; read-out: PPAR delta Kd app
Experimental: as §1, §2, §3, §4

PPARα = molecular target: T2, PPARα (Homo sapiens, UniProt Q07869); assay: Cross-curve PPAR transactivation test (luciferase reporter, HeLN cells), PPARα; details: HeLN cells stably transfected with Gal-hPPARα; apparent Kd by Schild regression against reference agonist; n.a. means not active; read-out: PPAR alpha Kd app
T2 sequence (Q07869 200-468 limits assumed): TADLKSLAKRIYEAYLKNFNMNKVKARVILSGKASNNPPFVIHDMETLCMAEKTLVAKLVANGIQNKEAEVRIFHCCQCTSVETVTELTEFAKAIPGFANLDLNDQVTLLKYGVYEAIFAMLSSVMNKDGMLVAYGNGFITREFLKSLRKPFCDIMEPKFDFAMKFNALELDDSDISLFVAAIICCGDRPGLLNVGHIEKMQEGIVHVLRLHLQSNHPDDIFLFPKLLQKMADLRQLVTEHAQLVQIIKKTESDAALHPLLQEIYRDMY
Experimental: as §1, §2, §3, §4

Chain of PPARδ (Q03181 211-441 limits assumed): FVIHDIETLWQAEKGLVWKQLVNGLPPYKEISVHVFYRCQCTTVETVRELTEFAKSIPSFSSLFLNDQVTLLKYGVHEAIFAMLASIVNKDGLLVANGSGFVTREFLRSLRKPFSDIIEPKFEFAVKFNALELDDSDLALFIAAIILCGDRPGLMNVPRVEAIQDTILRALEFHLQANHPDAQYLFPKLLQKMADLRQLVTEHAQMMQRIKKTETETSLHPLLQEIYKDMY

| Kd (PPARγ) [nM] | Kd (PPARδ) [nM] | Kd (PPARα) [µM] | Structure (SMILES) |
| --- | --- | --- | --- |
| 2000 | 120 | 8 | CCCCCCNC(=O)N(CCCc1ccccc1)c1cccc(Sc2ccc(CC(=O)O)cc2)c1 [Example 30b, (4-{3-[3-Hexyl-1-(3-phenylpropyl)ureido]phenylsulfanyl}phenyl)acetic acid] |
| 500 | 120 | 0.25 | O=C(O)Cc1ccc(Sc2ccc(N(CCc3ccccc3)C(=O)NC3CCCCC3)cc2)cc1 [Example 116b, {4-[4-(3-Cyclohexyl-1-phenethylureido)phenylsulfanyl]phenyl}acetic acid] |
